Laboratory results: PubChem BioAssay (NCI)
Where “and” joins values, the source holds several entries; their conditions need not be identical. Equal entries are not always repeated.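 These data come from cells grown in 96-well plates and exposed to compound for 48 hours at five concentrations. Abbreviation: GI50, concentration required for 50% inhibition of growth. TGI: concentration producing complete growth inhibition.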

Legend:
Test in all cases: growth of human tumour cells (NCI), 48 h
[1] = system: LOX IMVI melanoma
[2] = system: OVCAR-3 ovarian
[3] = system: MDA-MB-435
[4] = system: SK-MEL-2 melanoma
[5] = system: MALME-3M melanoma
[6] = system: KM12 colon
[7] = system: HS 578T breast

SMILES	GI50 [1] [µM]	TGI [1]	GI50 [2] [µM]	TGI [2]	GI50 [3] [µM]	TGI [3]	GI50 [4] [µM]	TGI [4] [µM]	GI50 [5] [µM]	TGI [5]	GI50 [6] [µM]	TGI [6]	GI50 [7] [µM]	TGI [7]
Cc1ccc2c(c1)Sc1c(ccc3ccccc13)N2	8.91	> 100 µM	> 100	> 100 µM	> 100	> 100 µM	> 100	> 100	> 100	> 100 µM	48.7	> 100 µM	–	–
N#CC(C#N)=C1Nc2ccccc2S1	42.5	> 100 µM	20.3	62.9 µM	30.3	> 100 µM	28.5	56.2	7.62	34.5 µM	34.8	> 100 µM	34.1	85.9 µM
CS(=O)(=O)c1ccc(-n2nc(C(F)(F)F)cc2OC2CCCC2)cc1	16.9	54.6 µM	32.9	> 100 µM	59.6	> 100 µM	> 100	> 100	–	–	38.5	> 100 µM	> 100	> 100 µM
Cc1ccc(C(=O)NC(C)C)cc1-c1ccc(C(=O)NCC2CC2)cc1	> 25	> 25 µM	> 25	> 25 µM	> 25	> 25 µM	> 25	> 25	> 25	> 25 µM	> 25	> 25 µM	> 25	> 25 µM
CC/C=C\C[C@H](F)C/C=C1/C(=O)C=C[C@@H]1C/C=C\CCCC(=O)O	3.77	7.97 µM	7.96	22.1 µM	4.06	11.3 µM	6.7	16.9	8.08	23.2 µM	4.65	13.3 µM	13	> 32.5 µM
CCCCCCCC(=O)OCC/C=C/C1OC1C1OC(=O)/C=C\C=C\c2nc(oc2C)/C=C(/C)CCC2OC2C1OC(=O)NC(C)=O (stereo not given)	0.0372	0.648 µM	0.0537	0.142 µM	–	–	0.0222	0.0647	–	–	0.0271	0.119 µM	0.0776	0.221 µM
COc1ccc2c(c1)CCCN2c1c2ccccc2nc2ccccc12	0.505	12.1 µM	0.275	0.75 µM	–	–	0.813	> 100	4.26	> 100 µM	0.386	15.6 µM	0.314	5.86 µM
CCOC(=S)SSSC(=S)OCC	–	> 100 µM	–	> 100 µM	–	> 100 µM	–	–	–	> 100 µM	–	> 100 µM	–	> 100 µM
COc1ccc(-c2onc(N)c2-c2cc(OC)c3c(c2)OCO3)cc1	3.68	> 100 µM	2.08	7.08 µM	0.29	1.13 µM	–	–	6.1	> 100 µM	1.85	> 75.4 µM	2.65	> 100 µM
O=C(Nc1ccncc1)C(=O)c1cn(S(=O)(=O)c2cccc(F)c2)c2ccccc12	3.51	> 100 µM	2.65	12.5 µM	0.385	4.02 µM	10.3	> 100	12.8	> 100 µM	3.04	> 100 µM	8.31	> 100 µM
O=C(O)/C=C(\c1nc2ccc([N+](=O)[O-])cc2[nH]1)c1cc(Cl)ccc1O	2.41	11.1 µM	–	–	2.84	34.5 µM	2.4	7.59	1.96	7.52 µM	2.84	17.7 µM	4.97	> 100 µM
Cc1cc2c(cc1Cl)SC1=NN(C)S(=O)N1S2(=O)=O (stereo not given)	> 100	> 100 µM	> 100	> 100 µM	> 100	> 100 µM	> 100	> 100	> 100	> 100 µM	> 100	> 100 µM	> 100	> 100 µM
C[N+]1=C(/C=C/c2ccc(O)c3ncccc23)C(C)(C)c2ccccc21	2.32	5.74 µM	2.1	5.46 µM	2.35	7.01 µM	3.88	24	2.01	5.43 µM	2.97	10.5 µM	2.14	8.14 µM
COc1cc(C(=O)CBr)c(OC)cc1C	–	> 100 µM	–	–	–	> 100 µM	–	> 100	–	> 100 µM	–	> 100 µM	–	> 100 µM
O=C(Nc1ccc(-c2nc(N3CCOCC3)c3cccn3n2)cc1)Nc1cccnc1	–	–	0.152	1.06 µM	0.225	> 100 µM	0.333	> 100	0.082	0.471 µM	0.162	16.7 µM	0.0545	0.416 µM
Nc1nc2c(nnn2C2CC(O)C(CO)O2)c(=O)[nH]1 (stereo not given)	0.92	> 83.2 µM	4.78	> 69 µM	4.35	> 100 µM	20.2	> 100	5.53	> 100 µM	5.39	> 100 µM	> 33.9	> 95.7 µM
O=C1CCC(N2C(=O)c3ccccc3C2=O)C(=O)N1CO (stereo not given)	23.6	58 µM	67.4	> 100 µM	> 100	> 100 µM	> 100	> 100	> 100	> 100 µM	> 100	> 100 µM	> 100	> 100 µM
O=C(O)CCNC1CCCCC1	> 100	> 100 µM	> 100	> 100 µM	> 100	> 100 µM	> 100	> 100	> 100	> 100 µM	> 100	> 100 µM	> 100	> 100 µM
O=C(CC1C(=O)NN(c2ccc(Br)cc2)C1=O)c1cc(O)ccc1O (stereo not given)	8.3	19.5 µM	7.41	21.7 µM	7.2	23.1 µM	36.5	> 50	–	–	9.84	40.6 µM	26.2	> 50 µM

SMILES	GI50 [1] [µM]	TGI [1]	GI50 [2] [µM]	TGI [2]	GI50 [3] [µM]	TGI [3]	GI50 [4] [µM]	TGI [4] [µM]	GI50 [5] [µM]	TGI [5]	GI50 [6] [µM]	TGI [6]	GI50 [7] [µM]	TGI [7]
Nc1nccc(-c2c(-c3ccc(F)cc3)ncn2C2CCC(O)CC2)n1 (stereo not given)	9.34	> 25 µM	9.47	> 25 µM	6.75	> 25 µM	24.7	> 25	6.72	> 25 µM	7.82	> 25 µM	8.21	> 25 µM
COc1ccc2c(c1)C(=O)c1c-2n(CCCn2ccnc2)c(=O)c2cc([N+](=O)[O-])ccc12	< 0.01	0.0351 µM	0.0254	4.41 µM	–	–	0.245	–	< 0.0197	10.8 µM	< 0.0229	8.69 µM	2.1	> 29 µM
CC(C)(CO)N1CCN(C(=S)Nc2ccccc2)CC1	–	> 100 µM	–	> 100 µM	–	> 100 µM	–	> 100	–	> 100 µM	–	> 100 µM	–	> 100 µM
C#CCNC(=O)c1cccc2c1cc(C)n2-c1nc2c(c(NCc3ccccc3)n1)CCCC2	0.0104	0.0256 µM	0.0236	0.057 µM	0.0235	0.0656 µM	0.023	0.0627	0.00311	0.0114 µM	0.0231	0.065 µM	0.0321	0.954 µM
O=C(CCc1nnc2sc(-c3ccc(Cl)cc3Cl)nn12)c1nc2ccccc2[nH]1	0.233	0.671 µM	0.491	1.71 µM	0.382	2.22 µM	1.78	5.4	0.821	3.52 µM	1.25	2.86 µM	2.23	8.29 µM
CCN(CC)CCCC(C)Nc1c2ccc(Cl)cc2nc2ccc(O)cc12 (stereo not given)	1.6	3.22 µM	2.05	5.93 µM	1.77	3.32 µM	4.78	19.9	1.42	2.87 µM	2.39	10.5 µM	1.68	5.55 µM
O=C1C(Cl)=C(NCCN2CCOCC2)C(=O)c2ncccc21	0.905	3.44 µM and 2.55 µM	–	3.69 µM and 3.01 µM	0.267	0.372 µM and 0.686 µM	2.16	4.37	1.13	3.07 µM and 2.63 µM	3.55	3.1 µM and 16.1 µM	3.39	4.97 µM and 19 µM
Nc1nc(N(Cc2ccccc2)c2ccccc2)c2cn[nH]c2n1	3.91	> 100 µM	3.34	41.1 µM	2.63	> 100 µM	3.14	> 100	4.23	> 100 µM	3.23	> 100 µM	2.7	7.91 µM
O=C(O)C(=Cc1ccc(-c2ccccc2)cc1)C(=O)O	–	25.9 µM	–	17.5 µM	–	> 64.8 µM	–	16.6	–	39.7 µM	–	40.9 µM	–	> 100 µM
COC(=O)Nc1nc2ccc(Oc3ccc(NC(=O)Nc4cc(C(F)(F)F)ccc4F)cc3)cc2s1	3.65	> 25 µM	> 23.9	> 25 µM	7.37	> 25 µM	> 5.02	> 25	0.343	> 25 µM	0.0859	> 25 µM	6.21	> 25 µM
O=c1cc(-c2ccccc2)oc2cc(OC/C(=N/O)c3ccccc3)ccc12	30.5	> 50 µM	12.8	> 50 µM	> 50	> 50 µM	20.2	> 50	–	–	13.2	> 50 µM	–	–
COc1ccc(-c2nc(-c3nc4ccc(Cl)cc4[nH]3)c3ccccn23)cc1	2.85	6.66 µM	2.61	6.69 µM	2.3	7.64 µM	2.71	8.76	2.35	5.57 µM	7.68	> 100 µM	2.76	8.06 µM
Cc1ccc(C(=O)N(CCCN)C(c2oc3cc(Cl)ccc3c(=O)c2Cc2ccccc2)C(C)C)cc1 (stereo not given)	< 0.0402	1.98 µM	< 0.01	1.14 µM	< 0.01	< 0.01 µM	< 0.01	–	1.3	3.09 µM	< 0.01	1.47 µM	< 0.01	1.46 µM
Cn1c2ccccc2c2ccc3c(c21)C(=O)c1ccccc1C3=O	–	29.4 µM	–	26.8 µM	–	32.2 µM	–	–	–	24.5 µM	–	> 100 µM	–	46.6 µM
O=S(=O)(NC1=NCCN1C(=S)SN1CCn2c1nsc2=S)c1cccc(Cl)c1	10.7	22.9 µM	12.9	28.5 µM	9.69	27.7 µM	26	98.9	–	–	16.6	34.1 µM	39.3	> 100 µM
CCCCCCCC[C@@H](O)CC(=O)N[C@@H](CC(N)=O)C(=O)N[C@@H](CCC(N)=O)C(=O)N[C@@H](CC(=O)c1cc(C)cc(O)c1C(=O)c1c(O)cccc1O)CC(C)C	1.32	3.9 µM	0.307	1.2 µM	–	–	2.76	8.32	0.667	> 100 µM	0.971	3.3 µM	3.46	62 µM
Cc1cc(-c2cnn3c(NCC4CC(C)(O)C4)cc(Oc4cccnc4)nc23)ccc1C(=O)NC1CC1 (stereo not given)	0.395	> 100 µM	> 100	> 100 µM	–	–	1.95	> 100	–	–	–	–	4.19	> 100 µM
O=C1c2ccccc2C(=O)N1CCc1ncc[nH]1	–	> 100 µM	–	> 100 µM	–	> 100 µM	–	> 100	–	–	–	> 100 µM	–	> 100 µM
CCCn1c(=S)sc2c1nc(C)n1c(Nc3ccccc3)nnc21	3.67	> 100 µM	–	–	3.22	24.1 µM	4.64	53.1	2.94	> 100 µM	–	–	3.55	36 µM
